# Several values for one entry are separate records, joined by “and”; a condition that tells them apart may be missing. Equal entries are not always repeated.
# Target: T1, PfCRT^Dd2_M343L (Plasmodium falciparum, UniProt Q8IBZ9, A220S/I356T/K76T/M343L/M74I/N326S/N75E/Q271E/R371I)
# T1 construct: expressed in transfected cells; host or cells: Xenopus laevis oocytes injected with in vitro transcribed RNA (pSP64T)
# T1 sequence (Q8IBZ9 1-424 M74I/N75E/K76T/A220S/Q271E/N326S/M343L/I356T/R371I): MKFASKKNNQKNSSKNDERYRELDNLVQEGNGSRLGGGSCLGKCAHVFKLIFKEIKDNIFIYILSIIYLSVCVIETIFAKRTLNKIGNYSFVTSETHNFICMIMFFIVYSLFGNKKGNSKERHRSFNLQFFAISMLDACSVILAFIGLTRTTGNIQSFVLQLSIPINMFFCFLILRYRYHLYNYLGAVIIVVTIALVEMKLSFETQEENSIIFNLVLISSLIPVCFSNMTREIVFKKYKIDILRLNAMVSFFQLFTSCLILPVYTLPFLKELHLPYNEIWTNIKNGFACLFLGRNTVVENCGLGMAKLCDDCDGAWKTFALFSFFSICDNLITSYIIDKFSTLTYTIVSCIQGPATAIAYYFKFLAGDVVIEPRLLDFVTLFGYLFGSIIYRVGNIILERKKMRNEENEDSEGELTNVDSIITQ
# Test: Verapamil inhibition of PfCRT-mediated CQ and PPQ transport in oocytes, PfCRT^Dd2_M343L
# Type: cell-based
# Conditions: individual replicates (S3 Fig)
# Procedure: In all cases, the PfCRT-mediated CQ and PPQ transport was inhibited in the presence of 100 μM verapamil (S3 Fig).
# Drug transport assays were performed as previously described. Briefly, measurements of radiolabeled drug uptake were made over 1 h, unless otherwise specified. […] Where specified, one or more unlabeled drugs were also present at the indicated concentrations. The direction of drug transport in the assays is from the extracellular medium (pH 6) into the oocyte cytosol (pH 7.2), which corresponds to the efflux of CQ or PPQ from the acidic digestive vacuole (pH 5.2) into the parasite cytosol (pH 7.2). The uptake assays were terminated by removing the oocytes from the reaction medium and washing them three times with 2 mL of ice-cold ND96 buffer. Each oocyte was transferred to a separate scintillation vial and lysed by the addition of 200 μL of a 5% SDS solution. The radioactivity in the sample was measured using a liquid scintillation analyser Tri-Carb 4910 TR (PerkinElmer). Water-injected oocytes were analyzed in parallel as a negative control. The buffer from each condition was measured in duplicate in parallel to each experiment to transform counts per minute into pmol of drug. Drug uptake attributable to PfCRT was determined by subtracting the background uptake from water-injected oocytes from that of PfCRT-expressing oocytes. In all cases, at least three independent experiments were performed on oocytes from different frogs, and for each condition in an experiment, measurements were made from 10 oocytes per treatment.
# Supplementary file ppat.1011436.s006.tif: S3 Fig Verapamil inhibits PfCRT-mediated transport of CQ and PPQ. […] Left panels, data is shown as individual biological replicates (coloured symbols) overlaid onto bars representing the Mean ± S.E.M. (error bars). A one-tailed Student’s t-test was performed between untreated (no VP) and treated (+ 100 μM VP) samples, and the obtained p values are shown. Right panels, the uptake in VP-treated samples was divided by the uptake in their corresponding untreated pairs and subtracted from 100% to get the percentage of uptake inhibition mediated by the presence of 100 μM verapamil in the extracellular medium. Error bars are S.E. (TIF) Click here for additional data file.
SMILES,PfCRTDd2_M343L-mediated PPQ transport (50 µM PPQ + 100 µM VP),PfCRTDd2_M343L-mediated CQ transport (50 µM CQ + 100 µM VP),PfCRTDd2_M343L-mediated CQ transport (50 µM CQ)
"Clc1ccc2c(N3CCN(CCCN4CCN(c5ccnc6cc(Cl)ccc56)CC4)CC3)ccnc2c1 [PPQ, piperaquine]",22.37 pmol oocyte-1 h-1 and 37.53 pmol oocyte-1 h-1 and 41.81 pmol oocyte-1 h-1 and 17.67 pmol oocyte-1 h-1,–,–
"CCN(CC)CCCC(C)Nc1ccnc2cc(Cl)ccc12 (stereo not drawn) [CQ, chloroquine]",–,1.630 pmol oocyte-1 h-1 and 0.990 pmol oocyte-1 h-1 and 2.400 pmol oocyte-1 h-1,2.130 pmol oocyte-1 h-1 and 3.200 pmol oocyte-1 h-1 and 2.380 pmol oocyte-1 h-1 and 2.370 pmol oocyte-1 h-1
